Key:
human AT1 receptor = biological target: T1, human AT1 receptor (Homo sapiens, UniProt P30556); experiment: AT1 functional assay (FLIPR Ca efflux, Angiotensin-II at EC80); assay type: cell-based; conditions: CHO cells over-expressing full length human AT1 receptor; Angiotensin-II as agonist at EC80
T1 construct: CHO cell stably over-expressing the full length human AT1 receptor; expressed in transfected cells
T1 sequence (P30556 1-359): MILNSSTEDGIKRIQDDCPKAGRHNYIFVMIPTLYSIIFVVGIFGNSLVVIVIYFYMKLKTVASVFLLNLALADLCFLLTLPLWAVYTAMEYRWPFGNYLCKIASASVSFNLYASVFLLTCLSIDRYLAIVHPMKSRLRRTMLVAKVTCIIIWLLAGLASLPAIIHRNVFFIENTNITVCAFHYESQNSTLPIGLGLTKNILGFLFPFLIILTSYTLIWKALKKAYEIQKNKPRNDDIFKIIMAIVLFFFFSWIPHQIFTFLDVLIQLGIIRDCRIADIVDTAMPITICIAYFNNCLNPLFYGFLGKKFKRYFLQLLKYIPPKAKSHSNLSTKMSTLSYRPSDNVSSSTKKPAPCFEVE
Description: CHO cell stably over-expressing the full length human AT1 receptor was cultured in DMEM (Gibco) with 10% FCS (Hyclone) and selection maintained using 0.5 mg/ml G418 (Gibco). Cell at 70% confluence were trypsnised, resuspended in media and counted. 20,000 cells/well were plated into black polystyrene 384-well plates with transparent bottoms and allowed 16 hours to adhere. The cells were loaded with Flou-4 (TEFLABS, USA) dye in HBSS (Gibco) for 1 hour and then washed in HBSS and 0.6 μl of diluted compounds in DMSO added to the cells in 30 μd of HBSS in Multimek liquid handling system (Beckman, USA). The cells were then placed in the Fluorometric Imaging Plate Readers (FLIPR, Molecular Devices, USA) and 20 μl of Angiotensin-II peptide as agonist (at EC80) in HBSS was added in the instrument.
(§1) The Ca efflux was followed for 2 mins and the maximum height of the peak was measured at various compound concentrations and plotted according to the equation
(§2) and IC50 estimated wherein A is the bottom plateau of the curve i.e. the final minimum y value B is the top of the plateau of the curve i.e. the final maximum y value C is the x value at the middle of the curve. This represents the log EC50 value when A+B=100 D is the slope factor. x is the original known x values. y is the original known y values.

human ETA receptor = biological target: T2, human ETA receptor (Homo sapiens, UniProt P25101); experiment: ETA functional assay (FLIPR Ca efflux, Endothelin-1 at EC80); assay type: cell-based; conditions: CHO cells over-expressing full length human ETA receptor; Endothelin-1 as agonist at EC80
T2 construct: CHO cell stably over-expressing the full length human ETA receptor; expressed in transfected cells
T2 sequence (P25101 21-427): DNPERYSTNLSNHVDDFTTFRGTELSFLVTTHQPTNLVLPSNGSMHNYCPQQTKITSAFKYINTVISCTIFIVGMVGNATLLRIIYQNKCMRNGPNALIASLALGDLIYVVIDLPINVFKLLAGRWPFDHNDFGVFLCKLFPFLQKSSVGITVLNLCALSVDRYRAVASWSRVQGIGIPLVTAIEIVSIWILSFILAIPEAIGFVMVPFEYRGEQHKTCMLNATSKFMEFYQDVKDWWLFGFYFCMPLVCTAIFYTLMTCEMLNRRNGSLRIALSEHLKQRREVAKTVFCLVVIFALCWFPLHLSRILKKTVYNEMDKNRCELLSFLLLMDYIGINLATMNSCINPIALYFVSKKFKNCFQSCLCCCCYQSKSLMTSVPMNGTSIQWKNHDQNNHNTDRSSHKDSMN
Description: CHO cell stably over-expressing the full length human ETA receptor was cultured in DMEM (Gibco) with 10% FCS (Hyclone) and selection maintained using 0.5 mg/ml G418 (Gibco). Cell at 70% confluence were trypsnised, resuspended in media and counted. 20,000 cells/well were plated into black polystyrene 384-well plates with transparent bottoms and allowed 16 hours to adhere. The cells were loaded with Flou-4 (TEFLABS, USA) dye in BSS (Gibco) for 1 hour and then washed in HBSS and 0.6 μl of diluted compounds in DMSO added to the cells in 30 μl of HBSS in Multimek liquid handling system (Beckman, USA). The cells were then placed in the Fluorometric Imaging Plate Readers (FLIPR, Molecular Devices, USA) and 20 μl of Endothelin-1 peptide as agonist in HBSS (at EC80) was added in the instrument.
as §1, §2

Row | IC50 (human AT1 receptor) [nM] | IC50 (human ETA receptor) [nM] | SMILES
1 | 17.2 | 1040 | CCc1nc(C)cc2c1c(CC)nn2Cc1ccc(-c2cc(C)sc2S(=O)(=O)Nc2noc(C)c2C)c(COC)c1 [Example 38, 3-[4-(3,4-Diethyl-6-methyl-pyrazolo[4,3-c]pyridin-1-ylmethyl)-2-methoxymethyl-phenyl]-5-methyl-thiophene-2-sulfonic acid (4,5-dimethyl-isoxazol-3-yl)-amide]
2 | 25.1 | 781 | CCOc1cc(=O)n(Cc2ccc(-c3cc(C)sc3S(=O)(=O)Nc3noc(C)c3C)c(C)c2)c2cc(CC)nc(CC)c12 [Example 39, 3-[4-(4-Ethoxy-5,7-diethyl-2-oxo-2H-[1,6]naphthyridin-1-ylmethyl)-2-methyl-phenyl]-5-methyl-thiophene-2-sulfonic acid (4,5-dimethyl-isoxazol-3-yl)-amide]

Reference: US20100010035A1, “Novel Dual Action Receptors Antagonists (Dara) at the Ati and Eta Receptors” (priority 2006, published 2010)
